How the values were obtained:
[1] = tested on: parental HT1080 cell line; details: 1 μM conjugate, serum-free medium, 19 hours at 37° C.
Protocol: (§1) Mammalian cell lines expressing recombinant FAPα were prepared. HT1080 fibrosarcoma cells, widely known and available from the DSMZ (German Collection of Microorganisms and Cell Cultures, Braunschweig, Germany) under the accession number DSMZ ACC 315, were maintained in a DMEM/F12 mix 50:50 containing 10% fetal bovine serum in an atmosphere of 95% air and 5% CO2. HT1080 cells were transfected with FAP.38 vector (WO 97/34927, Scanlan et al., loc. cit.) using the Lipofectin method according to the manufacturer's instructions (Gibco/BRL). Transfectants were selected for resistance to antibiotics (200 μg/ml Geneticin) and thereafter maintained in medium containing Geneticin. Individual colonies of resistant cells were picked, grown to confluence in 10 cm tissue culture petri dishes and tested for FAPα expression in an immunofluorescence assay using the FAPα-specific monoclonal antibody F19, as described (Garin-Chesa et al. (1990) Proc. Natl. Acad. Sci. USA 87(18), 7235-7239).
(§2) Samples were separated by reversed-phase high performance liquid chromatographic (HPLC) assay that was established to measure cleavage of doxorubicin-peptide conjugates. […] Free doxorubicin and doxorubicin-peptide conjugates were detected by fluorescence (excitation, 475 nm; emission, 585 nm) using a Waters 474 fluorescence detector. […]

[2] = molecular target: T1, cell-bound FAPα (FAP-expressing cell line HT1080 clone 33) (Homo sapiens, UniProt Q12884); assay: Release of free doxorubicin by cell-bound FAPα, HT1080 clone 33 cells; format: cell-based; details: 1 μM conjugate, serum-free medium, 19 hours at 37° C.
T1 construct: expressed in transfected cells; host or cells: HT1080 fibrosarcoma cells, clone 33
T1 sequence (Q12884 1-760): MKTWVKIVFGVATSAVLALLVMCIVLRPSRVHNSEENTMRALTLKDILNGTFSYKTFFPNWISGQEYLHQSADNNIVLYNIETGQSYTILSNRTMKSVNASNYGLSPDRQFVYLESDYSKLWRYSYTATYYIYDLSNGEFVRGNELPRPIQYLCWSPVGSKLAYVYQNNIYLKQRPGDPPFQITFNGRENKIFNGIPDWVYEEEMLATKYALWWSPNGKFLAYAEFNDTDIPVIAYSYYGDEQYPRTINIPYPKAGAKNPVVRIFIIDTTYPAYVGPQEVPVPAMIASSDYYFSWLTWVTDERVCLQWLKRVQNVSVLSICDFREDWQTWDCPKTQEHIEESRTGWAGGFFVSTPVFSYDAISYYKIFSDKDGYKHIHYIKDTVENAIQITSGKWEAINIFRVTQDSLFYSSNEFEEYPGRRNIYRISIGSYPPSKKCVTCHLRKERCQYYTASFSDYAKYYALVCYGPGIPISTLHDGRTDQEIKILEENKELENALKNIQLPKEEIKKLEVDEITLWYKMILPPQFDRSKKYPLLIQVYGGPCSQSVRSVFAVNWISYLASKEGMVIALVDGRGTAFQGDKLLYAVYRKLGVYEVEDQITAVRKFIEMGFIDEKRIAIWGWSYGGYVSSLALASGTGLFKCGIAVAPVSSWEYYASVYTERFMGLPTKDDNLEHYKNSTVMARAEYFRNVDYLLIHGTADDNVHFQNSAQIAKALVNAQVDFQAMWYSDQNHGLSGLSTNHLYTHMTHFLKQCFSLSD
Protocol: as §1, §2

[3] = molecular target: T2, soluble recombinant FAPα (FAPmCD8 fusion protein) (UniProt P01731+Q12884); assay: Cleavage of doxorubicin-peptide conjugates by soluble recombinant FAPα (HPLC release of free doxorubicin); format: biochemical, human
T2 construct: the extracellular domain of FAPα (amino acids 27 to 760), generating a fusion protein construct, FAPmCD8; extracellular domain of murine CD8α (Genbank M12825), N-terminal 189 amino acids (N); made in house; host or cells: High Five insect cells, recombinant baculovirus (pVL1393; amplified in Sf9)
Protocol: A soluble recombinant form of FAPα protein was prepared as follows. […] The cDNAs were verified by sequencing and inserted into the pVL1393 vector. […] The culture supernatant of High Five cells infected with recombinant FAPmCD8 baculovirus for four days was collected and cleared by ultracentrifugation. FAPmCD8 fusion protein was purified from such supernatants using an anti-FAPα monoclonal antibody immobilized on activated agarose beads (Pierce Chemical, Indianapolis, Ind., USA). […] The samples were immediately neutralized with a saturated Tris solution (Sigma Chemicals, St. Louis, Mo.) and protein-containing fractions were pooled.
Doxorubicin-peptide conjugate stock solutions (5 mM) were diluted with Hepes-buffered saline pH 7.4 to a final concentration of 50 to 100 μM. Twenty μl of the resulting solution was mixed with 50 μl of purified FAPmCD8 fusion protein (approximately 20 ng) described above and 30 μl Hepes-buffered saline, pH 7.4. The mixture was allowed to incubate at 37° C. for 1 day and release of free doxorubicin was measured in the HPLC assay described. Areas under each peak were quantified using the software package above and the initial value was set to 100%. The rate of release of free doxorubicin was measured by the appearance of a peak with the same retention time as free doxorubicin under these HPLC conditions. The areas under each peak were used to calculate the relative amounts of free doxorubicin to doxorubicin-peptide conjugate.

T2 sequence (P01731+Q12884 fused): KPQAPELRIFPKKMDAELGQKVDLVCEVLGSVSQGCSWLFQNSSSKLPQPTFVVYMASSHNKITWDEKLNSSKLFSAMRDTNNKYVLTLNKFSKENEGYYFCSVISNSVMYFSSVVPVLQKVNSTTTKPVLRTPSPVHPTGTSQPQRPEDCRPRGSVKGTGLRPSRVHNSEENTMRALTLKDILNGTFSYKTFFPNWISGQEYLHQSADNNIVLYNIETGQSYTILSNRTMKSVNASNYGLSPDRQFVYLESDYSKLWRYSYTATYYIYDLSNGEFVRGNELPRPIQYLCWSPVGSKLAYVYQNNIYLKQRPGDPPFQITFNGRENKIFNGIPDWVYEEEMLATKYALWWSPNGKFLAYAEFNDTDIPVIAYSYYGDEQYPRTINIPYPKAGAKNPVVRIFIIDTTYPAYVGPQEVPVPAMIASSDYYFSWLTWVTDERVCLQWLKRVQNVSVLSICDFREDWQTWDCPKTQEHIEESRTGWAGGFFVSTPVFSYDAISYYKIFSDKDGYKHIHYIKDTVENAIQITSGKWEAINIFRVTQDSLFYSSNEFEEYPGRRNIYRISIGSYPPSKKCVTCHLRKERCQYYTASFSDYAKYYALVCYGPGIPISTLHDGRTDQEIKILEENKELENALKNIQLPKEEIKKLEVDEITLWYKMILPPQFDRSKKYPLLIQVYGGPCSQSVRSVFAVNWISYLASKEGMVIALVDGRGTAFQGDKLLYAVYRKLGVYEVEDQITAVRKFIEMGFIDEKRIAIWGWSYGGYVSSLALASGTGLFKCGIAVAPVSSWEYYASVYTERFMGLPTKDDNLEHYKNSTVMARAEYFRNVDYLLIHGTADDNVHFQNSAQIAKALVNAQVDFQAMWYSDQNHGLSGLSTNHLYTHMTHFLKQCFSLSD

How did the “conversion of conjugate to free doxorubicin by parental HT1080 cell line” value [1] turn out when COc1cccc2c1C(=O)c1c(O)c3c(c(O)c1C2=O)C[C@@](O)(C(=O)CO)C[C@@H]3O[C@H]1C[C@H](NC(=O)[C@@H]2CCCN2C(=O)CNC(=O)OCc2ccccc2)[C@H](O)[C@H](C)O1 [ZGP-Dox, N-Cbz-Gly-Pro-Doxorubicin] was run?
Its value is 9%.

What about the “conversion of conjugate to free doxorubicin by HT1080 clone 33” value [2] of the same compound?
Its value is 81%.

What about the “conversion of conjugate to free doxorubicin after incubation with purified FAPmCD8 fusion protein” value ([3]; 37° C., 1 day, approximately 20 ng FAPmCD8, Hepes-buffered saline pH 7.4, HPLC (FIG. 1)) of the same compound?
The value was “could be converted to free doxorubicin”.

And the “Cleavage by FAP” value ([3]; after 20 h)?
The value was over 95%.

Source: patent publication US6613879B1, “FAP-activated anti-tumour compounds” (Boehringer Ingelheim Pharma KG, priority 1999, dated 2003)
